Measurements reported in patent EP1948196B1, “USE OF TETRAORGANOSILICON COMPOUNDS” (Salama, Zoser B., priority 2005, dated 2007).
Like-named read-outs stand apart in the source and are kept apart here. Numbered stars: 1 amine (or outer) side, 2 acyl side, 3 side chain; on linkers, the order of the positions; unused ones are H or OH. Bridge positions count the residues as written; N and C are the ends. Peptide text beside a SMILES is read from it. I, II: the chains in the order shown. OSi(nPr)2O = CCC[Si](CCC)(O[*:1])O[*:2]; X1 = C[Si](C)(O[*:1])O[*:2]

What was measured:
HIV-Vren = experiment: Antiviral effect; details: in particular as vesicles holding antisense constructs
Medulloblastome [1] = experiment: Effect on medulloblastomas
Entero-Viren [2] = experiment: Antiviral effect; details: in particular as vesicles holding antisense constructs
Lymphome = experiment: Effect on lymphomas
Krebszellen = experiment: Effect of sugar silanes on cancer cells; assay type: cell-based
Osteosarkomen = experiment: Antimetastatic effect in rats; assay type: in vivo; details: in Ratten
Osteosarkome = experiment: Effect on osteosarcomas
[3] = tested on: Kälber-Aortenendothelzellinie BKEz-7; experiment: tissue or blood; assay type: cell-based
Text: Prüfung auf zytotoxisches Potential an Kälber-Aortenendothelzellinie BKEz-7
(§1) Als Marker für eine zytotoxische Wirkung wird bei Zellen der charakterisierten Kälber-Aortenendothelzellinie BKEz-7 die Hemmkonzentration ermittelt, bei der eine 50%-ige Hemmung der Zellproliferation erfolgt (im Vergleich zu Kontrollkulturen ohne Zusatz eines Zellinhibitors). Die resultierende Reduzierung der Zellzahl um 50% wird als IC 50 ausgedrückt. Die getesteten Silanverbindungen wurden als Suspensionen auf die Kulturen gegeben und 48 Stunden bei 37°C inkubiert. Zusätzlich erfolgten morphologische Kontrollen und Vitalitätsbestimmungen mittels dem Neutralrot-Test. Mit Ausnahme des Di(dodecanoyloxy)dimethylsilans standen alle Ergebnisse der morphologischen Untersuchungen in guter Übereinstimmung. […]

Maus = experiment: Pharmacological observation in the mouse (central, vegetative and toxic effects, acute toxicity); assay type: in vivo
Outline: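 Mice given single doses of 5·10^-4, 1·10^-3 and 5·10^-3 mol/kg body weight and observed individually. Recorded: orienting lethal dose (oLD), motor activity, reactivity, skin and rectal temperature, and pupil motility.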

[4] = tested on: Kälber-Aortenendothelzellinie BKEz-7; experiment: Neutral red vitality test; assay type: cell-based; details: compared with the cytotoxicity test
Experimental: as §1

Entero-Viren [5] = experiment: Antiviral effect; details: in particular as vesicles holding antisense constructs; remark: listed apart in the source
Medulloblastome [6] = experiment: Effect on medulloblastomas; remark: listed apart in the source
Adenokarzinome = experiment: Effect on adenocarcinomas
Basalzellkarzinome = experiment: Effect on basal cell carcinomas
[7] = tested on: Osteosarkom bzw. Adenokarzinome; experiment: Effect in mice on osteosarcoma or adenocarcinoma; set-up: species or system Mäuse; details: in vivo
Medulloblastom-Zellen = experiment: Inhibition of cell multiplication; assay type: cell-based
[8] = tested on: Zellen des Basatzellkarzinoms; experiment: Inhibition of cell multiplication; assay type: cell-based
Plattenepithelkarzinome = experiment: Effect on squamous cell carcinomas

**Q.** For `CCCCCCCC/C=C\CCCCCCCC(=O)O[Si](OC(=O)CCCCCCC/C=C\CCCCCCCC)(C(C)C)C(C)C`, which “Wirkung gegen HIV-Vren” value (HIV-Vren) is on record?
**A.** zeigen eine Wirkung

**Q.** What about the “Wirkung gegen Medulloblastome” value (Medulloblastome [1]) of the same compound?
**A.** zeigen eine Wirkung

**Q.** What about the “Wirkung gegen Entero-Viren” value (Entero-Viren [2]) of the same compound?
**A.** zeigen eine Wirkung

**Q.** And the “Wirkung auf Lymphome” value (Lymphome)?
**A.** zeigen eine Wirkung

**Q.** Which “Wirkung auf Krebszellen” value (Krebszellen) does the source give for `CCCCCCCCCCCCCCCCCC[Si](C)(C)O[C@@H]1O[C@H](COC(C)=O)[C@@H](OC(C)=O)[C@H](OC(C)=O)[C@H]1OC(C)=O` [1-O-Dimethyl(octadecyl)silyl-2,3,4,6-tetr'a-0-acteyl-ß-D-glucopyranosid] here?
**A.** zeigen ebenfalls eine Wirkung

**Q.** With `CCCCCCCCCC(=O)O[Si](OC(=O)CCCCCCCCC)(C(C)C)C(C)C` [Di(decanoyloxy)diisopropylsilan] as the compound, how does the “antimetastasierende Wirkung bei Osteosarkomen” value (Osteosarkomen) read?
**A.** zeigen eine antimetastasierende Wirkung

**Q.** How did the “Wirkung auf Osteosarkome” value (Osteosarkome) turn out when `CCCCCCCCCCCC(=O)O[Si](C)(C)OC(=O)CCCCCCCCCCC` [Di(dodecanoyloxy)dimethylsilan] was run?
**A.** zeigen eine Wirkung

**Q.** And the “Bedenkliche Toxizität” value [3]?
**A.** -

**Q.** And the IC50 ([3]; suspensions, 48 Stunden bei 37°C)?
**A.** 129 µM

**Q.** And the “zentrale, vegetative und toxische Effekte (Verhaltensänderungen)” value (“zentrale … (Verhaltensänderungen)” for short) (Maus; 1•10^-3 mol/kg)?
**A.** keine Verhaltensänderungen

**Q.** What about the “zentrale … (Verhaltensänderungen)” value (Maus; 5•10^-3 mol/kg) of the same compound?
**A.** Ataxie, Ploerektion, Griffstärkesenkung

**Q.** What about the “zentrale … (Verhaltensänderungen)” value (Maus; 5•10^-4 mol/kg) of the same compound?
**A.** keine Verhaltensänderungen

**Q.** What about the “Vitalitätsbeeinflussungen im Neutralrot-Test” value [4] of the same compound?
**A.** geringere Vitalitätsbeeinflussungen als im Zytotoxizitätstest

**Q.** Which “Wirkung gegen HIV-Vren” value (HIV-Vren) does the source give for `CC/C=C\C/C=C\C/C=C\CCCCCCCC(=O)O[Si](OC(=O)CCCCCCC/C=C\C/C=C\C/C=C\CC)(C(C)C)C(C)C` [Di(linolenoylooxy) diisopropylsilan] here?
**A.** zeigen eine Wirkung

**Q.** What about the “Wirkung auf Lymphome” value (Lymphome) of the same compound?
**A.** zeigen eine Wirkung

**Q.** Which “Wirkung gegen HIV-Vren” value (HIV-Vren) does the source give for `CCCCC/C=C\C/C=C\CCCCCCCC(=O)O[Si](OC(=O)CCCCCCC/C=C\C/C=C\CCCCC)(C(C)C)C(C)C` [Di(linoylooxy)diisopropylsilan] here?
**A.** zeigen eine Wirkung

**Q.** And the “Wirkung auf Lymphome” value (Lymphome)?
**A.** zeigen eine Wirkung

**Q.** With `CCCCCCCCC(=O)O[Si](OC(=O)CCCCCCCC)(C(C)C)C(C)C` [Di(nonanoyloxy)diisopropylsilan] as the compound, how does the “antimetastasierende Wirkung bei Osteosarkomen” value (Osteosarkomen) read?
**A.** zeigen eine antimetastasierende Wirkung

**Q.** `CCCCCCCCCCC(=O)O[Si](OC(=O)CCCCCCCCCC)(C(C)C)C(C)C` [Di(undecanoyloxy)diisopropysilan] was tested. Which “antimetastasierende Wirkung bei Osteosarkomen” value (Osteosarkomen) did it give?
**A.** zeigen eine antimetastasierende Wirkung

**Q.** With `CC[Si](CC)(OC(=O)[C@@H](NC(=O)[C@@H](NC(=O)[C@@H](N)C(C)C)C(C)C)C(C)C)OC(=O)[C@@H](NC(=O)[C@@H](NC(=O)[C@@H](N)C(C)C)C(C)C)C(C)C` [Diethyl bis(trivalyl)silylester] as the compound, how does the “Wirkung auf Seminome” value (Seminome) read?
**A.** zeigen eine Wirkung

**Q.** With `C[Si](C)(OC(=O)CNC(=O)CNC(=O)CNC(=O)CNC(=O)CNC(=O)CNC(=O)CNC(=O)CN)OC(=O)CNC(=O)CNC(=O)CNC(=O)CNC(=O)CNC(=O)CNC(=O)CNC(=O)CN` [Dimethyl bis(octaglycyl)silylester] (I: H-GGGGGGGG / II: H-GGGGGGGG; linker I:C-II:C via X1) as the compound, how does the “Wirkung gegen Entero-Viren” value (Entero-Viren [5]) read?
**A.** zeigen eine Wirkung

**Q.** And the “Wirkung gegen Medulloblastome” value (Medulloblastome [6])?
**A.** zeigen eine Wirkung

**Q.** `CC(C)[C@H](N)C(=O)N[C@H](C(=O)N[C@H](C(=O)N[C@H](C(=O)N[C@H](C(=O)N[C@H](C(=O)N[C@H](C(=O)N[C@H](C(=O)O[Si](C)(C)OC(=O)[C@@H](NC(=O)[C@@H](NC(=O)[C@@H](NC(=O)[C@@H](NC(=O)[C@@H](NC(=O)[C@@H](NC(=O)[C@@H](NC(=O)[C@@H](N)C(C)C)C(C)C)C(C)C)C(C)C)C(C)C)C(C)C)C(C)C)C(C)C)C(C)C)C(C)C)C(C)C)C(C)C)C(C)C)C(C)C)C(C)C` [Dimethyl bis(octavalyl)silylester] (I: H-VVVVVVVV / II: H-VVVVVVVV; linker I:C-II:C via X1) was tested. Which “Wirkung auf Adenokarzinome” value (Adenokarzinome) did it give?
**A.** zeigen eine Wirkung

**Q.** What does the source list for `C[Si](C)(OC(=O)CNC(=O)CNC(=O)CNC(=O)CNC(=O)CN)OC(=O)CNC(=O)CNC(=O)CNC(=O)CNC(=O)CN` [Dimethyl bis(pentaglycyl)silylester]?
**A.** Wirkung gegen Entero-Viren (Entero-Viren [5]): zeigen eine Wirkung; Wirkung gegen Medulloblastome (Medulloblastome [6]): zeigen eine Wirkung

**Q.** Which “Wirkung auf Basalzellkarzinome” value (Basalzellkarzinome) does the source give for `C[Si](C)(OC(=O)[C@H](Cc1ccccc1)NC(=O)[C@H](Cc1ccccc1)NC(=O)[C@H](Cc1ccccc1)NC(=O)[C@H](Cc1ccccc1)NC(=O)[C@@H](N)Cc1ccccc1)OC(=O)[C@H](Cc1ccccc1)NC(=O)[C@H](Cc1ccccc1)NC(=O)[C@H](Cc1ccccc1)NC(=O)[C@H](Cc1ccccc1)NC(=O)[C@@H](N)Cc1ccccc1` [Dimethyl bis(pentaphenylalanyl)silylester] here?
**A.** zeigen eine Wirkung

**Q.** How did the “Wirkung auf Adenokarzinome” value (Adenokarzinome) turn out when `CC(C)[C@H](N)C(=O)N[C@H](C(=O)N[C@H](C(=O)N[C@H](C(=O)N[C@H](C(=O)O[Si](C)(C)OC(=O)[C@@H](NC(=O)[C@@H](NC(=O)[C@@H](NC(=O)[C@@H](NC(=O)[C@@H](N)C(C)C)C(C)C)C(C)C)C(C)C)C(C)C)C(C)C)C(C)C)C(C)C)C(C)C` [Dimethyl bis(pentavalyl)silylester] was run?
**A.** zeigen eine Wirkung

**Q.** Which results are given for `C[C@H](N)C(=O)N[C@@H](C)C(=O)N[C@@H](C)C(=O)N[C@@H](C)C(=O)O[Si](C)(C)OC(=O)[C@H](C)NC(=O)[C@H](C)NC(=O)[C@H](C)NC(=O)[C@H](C)N` [Dimethyl bis(tetraalanyl)silylester]?
**A.** Wirkung auf Mäuse, Osteosarkom bzw. Adenokarzinome [7]: zeigen eine Wirkung; Vermehrung von Medulloblastom-Zellen (Medulloblastom-Zellen): inhibieren; Vermehrung von Zellen des Basatzellkarzinoms [8]: inhibieren

**Q.** What does the source list for `C[Si](C)(OC(=O)CNC(=O)CNC(=O)CNC(=O)CN)OC(=O)CNC(=O)CNC(=O)CNC(=O)CN` [Dimethyl bis(tetraglycyl)silylester]?
**A.** Wirkung gegen Entero-Viren (Entero-Viren [5]): zeigen eine Wirkung; Wirkung gegen Medulloblastome (Medulloblastome [6]): zeigen eine Wirkung

**Q.** With `C[Si](C)(OC(=O)[C@H](Cc1ccccc1)NC(=O)[C@H](Cc1ccccc1)NC(=O)[C@H](Cc1ccccc1)NC(=O)[C@@H](N)Cc1ccccc1)OC(=O)[C@H](Cc1ccccc1)NC(=O)[C@H](Cc1ccccc1)NC(=O)[C@H](Cc1ccccc1)NC(=O)[C@@H](N)Cc1ccccc1` [Dimethyl bis(tetraphenylalanyl)slylester] as the compound, how does the “Wirkung auf Basalzellkarzinome” value (Basalzellkarzinome) read?
**A.** zeigen eine Wirkung

**Q.** For `CC(C)[C@H](N)C(=O)N[C@H](C(=O)N[C@H](C(=O)N[C@H](C(=O)O[Si](C)(C)OC(=O)[C@@H](NC(=O)[C@@H](NC(=O)[C@@H](NC(=O)[C@@H](N)C(C)C)C(C)C)C(C)C)C(C)C)C(C)C)C(C)C)C(C)C` [Dimethyl bis(tetravalyl)silylester], which “Wirkung auf Adenokarzinome” value (Adenokarzinome) is on record?
**A.** zeigen eine Wirkung

**Q.** Which results are given for `C[C@H](N)C(=O)N[C@@H](C)C(=O)N[C@@H](C)C(=O)O[Si](C)(C)OC(=O)[C@H](C)NC(=O)[C@H](C)NC(=O)[C@H](C)N` [Dimethyl bis(trialanyl)sillylester]?
**A.** Wirkung auf Mäuse, Osteosarkom bzw. Adenokarzinome [7]: zeigen eine Wirkung; Vermehrung von Medulloblastom-Zellen (Medulloblastom-Zellen): inhibieren; Vermehrung von Zellen des Basatzellkarzinoms [8]: inhibieren

**Q.** With `C[Si](C)(OC(=O)CNC(=O)CNC(=O)CN)OC(=O)CNC(=O)CNC(=O)CN` [Dimethyl bis(triglycyl)silylester] as the compound, how does the “Wirkung gegen Entero-Viren” value (Entero-Viren [5]) read?
**A.** zeigen eine Wirkung

**Q.** And the “Wirkung gegen Medulloblastome” value (Medulloblastome [6])?
**A.** zeigen eine Wirkung

**Q.** Which “Wirkung auf Basalzellkarzinome” value (Basalzellkarzinome) does the source give for `C[Si](C)(OC(=O)[C@H](Cc1ccccc1)NC(=O)[C@H](Cc1ccccc1)NC(=O)[C@@H](N)Cc1ccccc1)OC(=O)[C@H](Cc1ccccc1)NC(=O)[C@H](Cc1ccccc1)NC(=O)[C@@H](N)Cc1ccccc1` [Dimethyl bis(triphenylalanyl)silylester] here?
**A.** zeigen eine Wirkung

**Q.** For `CC(C)[C@H](N)C(=O)N[C@H](C(=O)N[C@H](C(=O)O[Si](C)(C)OC(=O)[C@@H](NC(=O)[C@@H](NC(=O)[C@@H](N)C(C)C)C(C)C)C(C)C)C(C)C)C(C)C` [Dimethyl bis(trivalyl)silylester], which “Wirkung auf Adenokarzinome” value (Adenokarzinome) is on record?
**A.** zeigen eine Wirkung

**Q.** Which “Wirkung gegen Plattenepithelkarzinome” value (Plattenepithelkarzinome) does the source give for `CCC[Si](CCC)(OC(=O)[C@H](C)NC(=O)[C@H](C)NC(=O)[C@H](C)NC(=O)[C@H](C)N)OC(=O)[C@H](C)NC(=O)[C@H](C)NC(=O)[C@H](C)NC(=O)[C@H](C)N` [Dipropyl bis(tetraalanyl)silylester] (I: H-AAAA / II: H-AAAA; linker I:C-II:C via OSi(nPr)2O) here?
**A.** zeigen eine Wirkung

**Q.** With `CCCCCCCCCCCC[Si](C)(C)O[C@@H]1O[C@H](COC(C)=O)[C@@H](OC(C)=O)[C@H](OC(C)=O)[C@H]1OC(C)=O` [Silan 12, 1-O-Dimethyl(dodecyl)silyl-2,3,4,6-tetra-0-acetyl-ß-D-glucopyrasonid] as the compound, how does the “Wirkung auf Krebszellen” value (Krebszellen) read?
**A.** zeigen ebenfalls eine Wirkung
